Source: patent US20140357512A1, “HISTONE DEACETYLASE (HDAC) BIOMARKERS IN MULTIPLE MYELOMA” (priority 2013, published 2014)

Tested on: human myeloma cell line MM.1S
Assay: SILAC acetylated-lysine peptide profiling, HDAC inhibitor vs DMSO (light/heavy ratio)
Assay type: cell-based
From the text: An embodiment of the invention comprises utilizing the SILAC method in order to quantitate changes in protein expression between two or more populations of cells. The SILAC method is a technique based on mass spectrometry that detects differences in protein abundance among samples using non-radioactive isotopic labeling. The SILAC method is known in the art, and described in detail in Ong et al., “Stable Isotope Labeling by Amino Acids in Cell Culture, SILAC, as a Simple and Accurate Approach to Expression Proteomics”, Molecular & Cellular Proteomics, vol. 1, pp. 376-386 (2002), which is incorporated herein by reference in its entirety.
Briefly, the SILAC method involves growing two populations of cells in cell culture. The first population of cells is grown in growth media containing normal amino acids (“normal media”). The second population of cells is grown in media lacking a standard essential amino acid (such as lysine), but is then supplemented with a non-radioactive, isotopically labeled form of that essential amino acid (such as lysine labeled with ^13C atoms, rather than normal ^12C atoms), which is called “heavy media”. When the two populations of cells are each growing in the medium, they incorporate the amino acids into all of their proteins. The growth of cells maintained in the heavy media is no different from that in normal media. All peptides containing the heavy amino acids are heavier than their normal counterparts. The cells from each of the two populations of cells are lysed. The lysates from each of the two cell populations are then combined. The combined cell lysates are then analyzed by mass spectrometry. Pairs of chemically identical peptides of different stable isotope composition can be differentiated in a mass spectrometer due to their difference in mass. The ratio of peak intensities in the mass spectrum for such peptide pairs reflects the abundance ratio for the two proteins.
This example describes SILAC studies that were performed to compare the effects of three different HDAC inhibitors (Compound A, Compound B, and tubastatin A) to a control on a human multiple myeloma cell line. The HDAC inhibitors were also compared amongst themselves to determine differences in their effects.
A human myeloma cell line MM.1S was grown using either ^12C (light) or ^13C (heavy) lysine containing culture medium. The “heavy” cells were treated with DMSO as the control, and the “light” cells were treated with a single HDAC inhibitor at 37° C. for 6 hours. The heavy and light cells were lysed, and the lysates were mixed in 1:1 ratio and digested with the protease trypsin. The acetylated lysine containing peptides (due to the action of the HDAC inhibitor) in the digested peptide pool were captured by a non-specific anti-acetylated lysine antibody cocktail (the antibodies identify both light and heavy acetylated peptides), and subjected to mass spectrometry analysis in order to identify thousands of individual peptides.
Thousands of peptides were identified in pairs (^12C and ^13C) due to their known mass differences. The amino acid sequence and quantitative ratio (Light/Heavy) of a given peptide in two differentially treated cell lysates were then determined and annotated with their possible protein (gene) sources.
As stated above, three HDAC inhibitors (Compound A, Compound B, and Tubastatin A) were used. Thus, the SILAC method was performed three times, with a different HDAC inhibitor compared to a control each time. Accordingly, there are three pairs of quantitative data in the table below, i.e., Compound A:DMSO, Compound B:DMSO, and Tubastatin A:DMSO. A cut-off of 1.30 fold of change (increase or decrease) was then used to determine “changed” or “+” in the table, and any peptides with a fold of change less than 1.3 fold were determined to be “unchanged” or “0” in the table. Those peptides that were not identified were marked as “NA” in the table. […]

Structure (SMILES): O=C(CCCCCCNC(=O)c1cnc(N(c2ccccc2)c2ccccc2)nc1)NO [Compound A, 2-(diphenylamino)-N-(7-(hydroxyamino)-7-oxoheptyl)pyrimidine-5-carboxamide]
- L/H ratio of acetylated peptide […](ac)K (SEQ ID NO: 105) (SNORD21, RPL5 [220], log 2 scale, drug vs DMSO): 0.00
- L/H ratio of acetylated peptide […](ac)R (SEQ ID NO: 106) (SNORD43, RPL3 [115], log 2 scale, drug vs DMSO): 0.00
- L/H ratio of acetylated peptide […](ac)YGAIR (SEQ ID NO: 107) (SRSF1 [38], log 2 scale, drug vs DMSO): 0.00
- L/H ratio of acetylated peptide (ac)AEPSAPESK(ac)HK (SEQ ID NO: 108) (STT3B [10], log 2 scale, drug vs DMSO): 0.00
- L/H ratio of acetylated peptide (SYAEELAK(ac)HGMK (SEQ ID NO: 481), Estradiol 17-beta-dehydrogenase 12 [72], HSD17B12): 0.39 log 2
- light to heavy ratio (L/H ratio), log 2 scale, acetylated peptide […](ac)R (SEQ ID NO: 781) (Selenoprotein H [20], gene C11orf31, drug:DMSO): 1.00
- light to heavy ratio (L/H ratio) of acetylated peptide LQDFK(ac)SFLLK (SEQ ID NO: 582) (Serine hydroxymethyltransferase mitochondrial [469], gene SHMT2, inhibitor:DMSO): 0.43 log 2
- light to heavy ratio (L/H ratio) of acetylated peptide SFLLK(ac)DSETSQR (SEQ ID NO: 567) (Serine hydroxymethyltransferase mitochondrial [474], gene SHMT2, inhibitor:DMSO): 0.41 log 2
- light to heavy ratio (L/H ratio) of acetylated peptide VFEK(ac)YGR (SEQ ID NO: 568) (Serine/arginine-rich splicing factor 2 [36], gene SRSF2, inhibitor:DMSO): 0.41 log 2
- light to heavy ratio (L/H ratio) of acetylated peptide SGLLDK(ac)WK (SEQ ID NO: 602) (Signal peptidase complex subunit 2 [38], gene LOC653566, SPCS2, inhibitor:DMSO): 0.46 log 2
- light to heavy ratio (L/H ratio) of acetylated peptide (ac)[…](ac)DK (SEQ ID NO: 283) (Splicing factor U2AF 35 kDa subunit [13], U2AF1, drug:DMSO): 0.60 log 2
- light to heavy ratio (L/H ratio) of acetylated peptide YDDPEVQK(ac)DIK (SEQ ID NO: 578) (Stress-70 protein mitochondrial [135], gene HSPA9, inhibitor:DMSO): 0.43 log 2
- light to heavy ratio (L/H ratio) of acetylated peptide […](ac)SLAEHR (SEQ ID NO: 534) (Stress-induced-phosphoprotein 1 [325], gene STIP1, inhibitor:DMSO): −0.40 log 2
- light to heavy ratio (L/H ratio) of acetylated peptide, log 2 scale (TLQYK(ac)[…] (SEQ ID NO: 252), 40S ribosomal protein S16 [50], RPS16): −0.39
- L/H ratio of acetylated peptide […](ac)YVPR (SEQ ID NO: 109) (TUBB2C [58], log 2 scale, drug vs DMSO): 0.00
- L/H ratio of acetylated peptide ILAEGGGAK(ac)FK (SEQ ID NO: 110) (TUFM [91], log 2 scale, drug vs DMSO): 0.00
- L/H ratio of acetylated peptide QIESK(ac)[…] (SEQ ID NO: 111) (TXN [8], log 2 scale, drug vs DMSO): 0.00
- L/H ratio of acetylated peptide VYVAK(ac)[…] (SEQ ID NO: 113) (TXNDC5, MUTED, MUTED-TXNDC5 [118], log 2 scale, drug vs DMSO): 0.00
- L/H ratio of acetylated peptide […](ac)YQGPR (SEQ ID NO: 112) (TXNDC5, MUTED, MUTED-TXNDC5 [150], log 2 scale, drug vs DMSO): 0.00
- light to heavy ratio (L/H ratio), log 2 scale, acetylated peptide LLGITK(ac)ECVMR (SEQ ID NO: 815) (Talin-1 [334], gene TLN1, drug:DMSO): 1.00
- light to heavy ratio (L/H ratio) of acetylated peptide NICSK(ac)YSVR (SEQ ID NO: 256) (Thioredoxin domain-containing protein 5 [390], TXNDC5, MUTED, MUTED-TXNDC5, drug:DMSO): 0.39 log 2
- light to heavy ratio (L/H ratio), log 2 scale, acetylated peptide […](ac)YGK (SEQ ID NO: 817) (Transitional endoplasmic reticulum ATPase [109], gene VCP, drug:DMSO): 1.00
- light to heavy ratio (L/H ratio) of acetylated peptide AVDCLLDSK(ac)WAK (SEQ ID NO: 518) (Translocation protein SEC62 [60], gene SEC62, inhibitor:DMSO): −0.51 log 2
- light to heavy ratio (L/H ratio) of acetylated peptide NVK(ac)FVLK (SEQ ID NO: 609) (Translocon-associated protein subunit gamma [81], gene SSR3, inhibitor:DMSO): 0.47 log 2
- light to heavy ratio (L/H ratio) of acetylated peptide SEIINSK(ac)NFDR (SEQ ID NO: 525) (Transmembrane protein 43 [159], gene TMEM43, inhibitor:DMSO): −0.45 log 2
- light to heavy ratio (L/H ratio) of acetylated peptide VK(ac)[…] (SEQ ID NO: 562) (Tricarboxylate transport protein mitochondrial [149], gene SLC25A1, inhibitor:DMSO): 0.40 log 2
- light to heavy ratio (L/H ratio), log 2 scale, acetylated peptide ESK(ac)[…] (SEQ ID NO: 787) (Trifunctional enzyme subunit alpha mitochondrial [337], gene HADHA, drug:DMSO): 1.00
- light to heavy ratio (L/H ratio), log 2 scale, acetylated peptide FGAPQK(ac)DVK (SEQ ID NO: 788) (Trifunctional enzyme subunit alpha mitochondrial [359], gene HADHA, drug:DMSO): 1.00
- light to heavy ratio (L/H ratio), log 2 scale, acetylated peptide ILQEGVDPK(ac)K (SEQ ID NO: 789) (Trifunctional enzyme subunit alpha mitochondrial [569], gene HADHA, drug:DMSO): 1.00
- light to heavy ratio (L/H ratio) of acetylated peptide VPGK(ac)DTVTK (SEQ ID NO: 308) (Trifunctional enzyme subunit beta mitochondrial [272], HADHB, drug:DMSO): 1.00 log 2
- light to heavy ratio (L/H ratio), log 2 scale, acetylated peptide GK(ac)GK(ac)AGR (SEQ ID NO: 816) (Tubulin polymerization-promoting protein [187:189], gene TPPP, drug:DMSO): 1.00
- L/H ratio of acetylated peptide VVVTK(ac)YCDPDSYHR (SEQ ID NO: 114) (U2AF2 [462], log 2 scale, drug vs DMSO): 0.00
- light to heavy ratio (L/H ratio), log 2 scale, acetylated peptide QNIILK(ac)NDK (SEQ ID NO: 784) (Uncharacterized protein CXorf59 [13], gene CXorf59, drug:DMSO): 1.00
- L/H ratio of acetylated peptide (VAILK(ac)ANLR (SEQ ID NO: 488), Transitional endoplasmic reticulum ATPase [658], VCP): 0.80 log 2
- L/H ratio of acetylated peptide FGIAAK(ac)[…] (SEQ ID NO: 115) (VDAC1 [224], log 2 scale, drug vs DMSO): 0.00
- L/H ratio of acetylated peptide YK(ac)[…] (SEQ ID NO: 116) (VDAC2 [63], log 2 scale, drug vs DMSO): 0.00
